Consider 65 compounds from ChEMBL document CHEMBL1124610, “Tyrphostins I: synthesis and biological activity of protein tyrosine kinase inhibitors” (J Med Chem, 1989).

The target in the first test is T1, Epidermal growth factor receptor (Homo sapiens, UniProt P00533). Description: (§1) Inhibitory concentration of EGF dependent autophosphorylation of epidermal growth factor receptor kinase.
T1 sequence (P00533 whole entry): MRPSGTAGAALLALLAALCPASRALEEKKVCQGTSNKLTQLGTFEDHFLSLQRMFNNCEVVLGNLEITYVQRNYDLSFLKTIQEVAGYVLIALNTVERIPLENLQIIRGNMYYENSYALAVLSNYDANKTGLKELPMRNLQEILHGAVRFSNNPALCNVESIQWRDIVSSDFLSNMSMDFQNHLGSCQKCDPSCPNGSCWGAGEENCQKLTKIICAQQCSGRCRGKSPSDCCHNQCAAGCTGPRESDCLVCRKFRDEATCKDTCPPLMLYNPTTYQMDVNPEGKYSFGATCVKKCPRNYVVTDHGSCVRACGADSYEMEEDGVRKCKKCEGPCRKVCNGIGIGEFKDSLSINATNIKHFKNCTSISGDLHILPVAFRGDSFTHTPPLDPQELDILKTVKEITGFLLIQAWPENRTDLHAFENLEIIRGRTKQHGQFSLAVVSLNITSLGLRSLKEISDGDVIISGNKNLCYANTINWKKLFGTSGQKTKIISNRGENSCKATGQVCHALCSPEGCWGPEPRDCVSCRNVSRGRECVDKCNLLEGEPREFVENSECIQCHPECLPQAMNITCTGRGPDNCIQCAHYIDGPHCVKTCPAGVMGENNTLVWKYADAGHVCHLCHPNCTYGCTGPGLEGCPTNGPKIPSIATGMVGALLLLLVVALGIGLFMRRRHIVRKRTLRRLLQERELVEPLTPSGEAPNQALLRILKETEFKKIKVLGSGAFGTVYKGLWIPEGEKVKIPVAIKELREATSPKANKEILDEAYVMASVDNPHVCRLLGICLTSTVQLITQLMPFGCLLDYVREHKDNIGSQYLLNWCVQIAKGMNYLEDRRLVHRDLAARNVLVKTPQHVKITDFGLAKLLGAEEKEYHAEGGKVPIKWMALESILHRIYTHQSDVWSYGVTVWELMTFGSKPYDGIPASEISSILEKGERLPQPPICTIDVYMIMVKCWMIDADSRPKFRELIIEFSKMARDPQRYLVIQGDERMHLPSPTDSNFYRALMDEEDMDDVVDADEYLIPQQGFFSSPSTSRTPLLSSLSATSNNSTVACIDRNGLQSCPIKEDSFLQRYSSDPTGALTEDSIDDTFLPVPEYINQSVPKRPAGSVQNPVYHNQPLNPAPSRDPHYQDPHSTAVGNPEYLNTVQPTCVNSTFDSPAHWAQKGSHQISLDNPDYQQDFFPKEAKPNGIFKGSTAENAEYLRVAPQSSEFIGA
The compound `COc1cc(/C=C(\C#N)C(=O)O)ccc1O` displayed an IC50 of 800 µM. In turn, `N#C/C(=C\c1ccc(O)c(O)c1)C(=O)O` yielded an IC50 of 70 µM. Compound `COc1cc(/C=C(\C#N)C(=O)O)cc(OC)c1O` displayed an IC50 of 700 µM.

For `N#C/C(=C\c1ccc(C=O)cc1)C(=O)O`, the IC50 came to 140 µM. The compound `Cc1ccc(/C=C(\C#N)C(=O)O)cc1` returned an IC50 of 1350 µM. The compound `CN(C)c1ccc(/C=C(\C#N)C(=O)O)cc1` showed an IC50 of 1400 µM. Consider `COc1ccc(/C=C(\C#N)C(=O)O)cc1`, for which half-maximal inhibition (IC50) required 2500 µM. For `N#C/C(=C\c1ccccc1)C(=O)O`, the concentration for half-maximal inhibition (IC50) was greater than 2500 µM. Still for that read-out and setting: with `N#C/C(=C\c1ccc(F)cc1)C(=O)O` the figure was 2500 µM. Turning to `N#C/C(=C\c1ccc(O)cc1)C(=O)O` [alpha-CYANO-4-HYDROXYCINNAMIC ACID], the midpoint of inhibition, the IC50, lay at 308 µM.

The next test deals with T1, Epidermal growth factor receptor. Described as §1.
Take `N#C/C(=C\c1ccc(O)c(O)c1)C(N)=O`: the IC50 came out at 10 µM. Still for that read-out and setting: with `N#CC(C#N)=Cc1ccc(O)cc1` the figure was 560 µM; with `CC(=C(C#N)C#N)c1ccc(NC(=O)CCC(=O)O)cc1`, 500 µM. For `COc1cc(C=C(C#N)C#N)cc([N+](=O)[O-])c1O`, the IC50 came to 160 µM. Still for that read-out and setting: then `N#CC(C#N)=Cc1ccc(NC(=O)CCC(=O)O)cc1`, with 640 µM. Still for that read-out and setting: with `COc1cc(/C=C(\C#N)C(=O)O)ccc1O` the figure was 800 µM. The compound `N#C/C(=C\c1ccc(O)cc1)C(N)=O` registered an IC50 of 800 µM.

Regarding `O=C(O)C(=Cc1ccc(O)cc1)C(=O)O`, inhibition was half-maximal at 1500 µM (IC50). With `N#CC(C#N)=Cc1ccc(O)c([N+](=O)[O-])c1`, the 50% inhibitory concentration (IC50) is 125 µM. On the same count and under the same terms, with `N#CC(C#N)=C1C(=O)NC(=O)NC1=O` the figure was 1400 µM. `N#CC(C#N)=C(N)/C(C#N)=C/c1ccc(O)c(O)c1` came in with an IC50 of 2.5 µM. Compound `N#CC(C#N)=C(O)c1cc(O)c(O)c(O)c1` yielded a half-maximal inhibitory concentration (IC50) of 13.5 µM. `N#CC(C#N)=C(N)/C(C#N)=C/c1ccc(O)c([N+](=O)[O-])c1` yielded an IC50 of 60 µM. Consider `N#C/C(=C\c1ccc([N+](=O)[O-])cc1)C(=O)O`, for which the half-maximal inhibitory concentration (IC50) was 1300 µM. Take `N#CC(C#N)=Cc1cccc(O)c1`: the IC50 was 375 µM. In turn, `N#CC(C#N)=Cc1ccc[nH]1` returned a half-inhibitory concentration (IC50) of 260 µM. With `N#CC(C#N)=NNc1ccc(O)cc1`, 225 µM corresponded to half-maximal inhibition (IC50). The same measure, in the same setting: with `N#CC(C#N)=Cc1ccc(C=O)cc1` the figure was 60 µM; with `COc1ccc(C(O)=C(C#N)C#N)cc1`, 450 µM. In the case of `N#CC(C#N)=Cc1ccc(N2CCOCC2)cc1`, the half-inhibitory concentration (IC50) was greater than 625 µM. For `COc1cc(C=C(C#N)C#N)cc(OC)c1O`, the half-inhibitory concentration (IC50) was 850 µM. The same measure, in the same setting: then `N#CC(C#N)=Cc1cc[n+]([O-])cc1`, with 1300 µM.

As for `N#C/C(=C\c1ccc(O)c(O)c1)C(=O)O`, half-maximal inhibition (IC50) was put at 70 µM. The same measure, in the same setting: then `N#C/C=C/c1ccc(O)cc1`, with 2400 µM; and `N#CCNC(=O)/C(C#N)=C/c1ccc(O)cc1`, with 625 µM; and `N#CC(C#N)Cc1ccc(O)cc1`, with 6500 µM.

Compound `N#CC(C#N)=C(N)/C(C#N)=C/c1ccc(O)cc1` had a concentration for half-maximal inhibition (IC50) of 0.125 µM. Regarding `N#C/C(=C/c1cc(O)ccc1O)C(=O)O`, the half-inhibitory concentration (IC50) was 75 µM. `N#CC(C#N)=Cc1cc(O)cc(O)c1` showed an IC50 of 37 µM. On to `COc1cc(/C=C(\C#N)C(=O)O)cc(OC)c1O`, for which half-maximal inhibition (IC50) was put at 700 µM. For the compound `N#CC(C#N)=Cc1ccc(F)cc1`, the 50% inhibitory concentration (IC50) was greater than 1250 µM.

`N#C/C(=C\c1ccc(C=O)cc1)C(=O)O` displayed a concentration for half-maximal inhibition (IC50) of 140 µM. Still for that read-out and setting: with `N#CC(C#N)=Cc1cc(O)ccc1[N+](=O)[O-]` the figure was 96 µM; with `COc1cc(/C(C)=C(\C#N)C(=O)O)ccc1O`, 1100 µM; with `CCCCc1cc(/C=C(\C#N)C(N)=O)cc(CCCC)c1O`, 55 µM.

The compound `CC(=C(C#N)C#N)c1ccc(N)cc1` yielded an IC50 greater than 1250 µM. Consider `COc1cc(C=C(C#N)C#N)cc(Br)c1O`, for which half-maximal inhibition (IC50) required 153 µM. The compound `N#C/C(=C/c1ccc[nH]1)C(=O)O` gave an IC50 of 1360 µM. `N#CC(C#N)=Cc1ccc([N+](=O)[O-])c(O)c1`: the half-maximal inhibitory concentration (IC50) is 450 µM. Compound `COc1ccc(/C=C(\C#N)C(=O)O)cc1` displayed a half-inhibitory concentration (IC50) of 2500 µM. As to `N#C/C(=C\c1ccccc1)C(=O)O`, the half-inhibitory concentration (IC50) was greater than 2500 µM.

Compound `COc1cc(C=C(C#N)C#N)cc(OC)c1` displayed an IC50 greater than 1250 µM. In turn, `N#CC(C#N)=Cc1ccncc1` registered a concentration for half-maximal inhibition (IC50) of 250 µM. In turn, `N#CC(C#N)=Cc1ccc(/C=C/C(=O)O)cc1` gave a half-maximal inhibitory concentration (IC50) of 450 µM.

Compound `N#CC(C#N)=C(N)/C(C#N)=C/c1cc(O)c(O)c(Br)c1` registered a half-maximal inhibitory concentration (IC50) of 0.5 µM. `N#CC(C#N)=CNc1ccc(O)cc1`: 350 µM corresponded to half-maximal inhibition (IC50). On the same count and under the same terms, then `COc1ccc(NN=C(C#N)C#N)cc1`, with 600 µM. On the same count and under the same terms, then `COc1cc(C=C(C#N)C#N)ccc1O`, with 200 µM.

Consider `N#CC(C#N)=Cc1ccc(C(=O)O)cc1`, for which the IC50 is 430 µM. As to `N#C/C(=C\c1ccc(F)cc1)C(=O)O`, half-maximal inhibition (IC50) was put at 2500 µM. On to `COc1ccc(C=C(C#N)C#N)cc1O`, for which the 50% inhibitory concentration (IC50) was greater than 250 µM. For the compound `N#CC(C#N)=C(O)c1ccc(O)cc1`, half-maximal inhibition (IC50) required 230 µM.

The compound `COc1cc(C=C(C#N)C#N)cc(O)c1O` had an IC50 of 6 µM. As to `O=C(O)/C=C/c1ccc(O)c(O)c1` [CAFFEIC ACID], the IC50 worked out at 1200 µM. Still for that read-out and setting: with `O=C(O)/C=C/c1ccc(O)cc1` [COUMARIC ACID] the figure was 3000 µM. The compound `O=CN/C=C/c1cc(O)ccc1O` [ERBSTATIN] yielded a 50% inhibitory concentration (IC50) of 14 µM.

Consider `N[C@@H](Cc1ccc(O)c(O)c1)C(=O)O` [LEVODOPA], for which the IC50 came to 900 µM.

On to `N#CC(C#N)=Cc1cc(O)c(O)c(O)c1` [TYRPHOSTIN 25], for which it took 3 µM to reach half-maximal inhibition (IC50). Still for that read-out and setting: then `N#CC(C#N)=C(N)/C(C#N)=C/c1cc(O)c(O)c(O)c1` [TYRPHOSTIN 51], with 0.8 µM. As to `CC(C)(C)c1cc(C=C(C#N)C#N)cc(C(C)(C)C)c1O` [TYRPHOSTIN A9], the IC50 came to 460 µM. On the same count and under the same terms, then `N#C/C(=C\c1ccc(O)cc1)C(=O)O` [alpha-CYANO-4-HYDROXYCINNAMIC ACID], with 308 µM.

The target is the same in the next test. As to the kind of experiment: Inhibition of EGF-dependent epidermal growth factor receptor autophosphorylation (inactive).
For the compound `O=[N+]([O-])c1ccc(O)c(O)c1` [4-Nitrocatechol], the IC50 entry was “Not Active” and the Ki result is recorded as “Not Active”.

For `O=C(O)c1ccc(O)cc1` [PARABEN], the IC50 entry is “Not Active” and the Ki result is listed as “Not Active”.

Usually IC50 stands for the concentration that inhibits the measured activity by half. Read a high IC50 as a need for much substance.
